{
  "source": "patent US20220280543A1",
  "about": "“DDX17 AND NLRC4 TARGETING FOR INFLAMMATORY DISEASES” (University of Virginia Patent Foundation, priority 2019, published 2022)",
  "target": "DDX17 (Homo sapiens, UniProt Q92841)",
  "sequence (Q92841 whole entry, species assumed)": "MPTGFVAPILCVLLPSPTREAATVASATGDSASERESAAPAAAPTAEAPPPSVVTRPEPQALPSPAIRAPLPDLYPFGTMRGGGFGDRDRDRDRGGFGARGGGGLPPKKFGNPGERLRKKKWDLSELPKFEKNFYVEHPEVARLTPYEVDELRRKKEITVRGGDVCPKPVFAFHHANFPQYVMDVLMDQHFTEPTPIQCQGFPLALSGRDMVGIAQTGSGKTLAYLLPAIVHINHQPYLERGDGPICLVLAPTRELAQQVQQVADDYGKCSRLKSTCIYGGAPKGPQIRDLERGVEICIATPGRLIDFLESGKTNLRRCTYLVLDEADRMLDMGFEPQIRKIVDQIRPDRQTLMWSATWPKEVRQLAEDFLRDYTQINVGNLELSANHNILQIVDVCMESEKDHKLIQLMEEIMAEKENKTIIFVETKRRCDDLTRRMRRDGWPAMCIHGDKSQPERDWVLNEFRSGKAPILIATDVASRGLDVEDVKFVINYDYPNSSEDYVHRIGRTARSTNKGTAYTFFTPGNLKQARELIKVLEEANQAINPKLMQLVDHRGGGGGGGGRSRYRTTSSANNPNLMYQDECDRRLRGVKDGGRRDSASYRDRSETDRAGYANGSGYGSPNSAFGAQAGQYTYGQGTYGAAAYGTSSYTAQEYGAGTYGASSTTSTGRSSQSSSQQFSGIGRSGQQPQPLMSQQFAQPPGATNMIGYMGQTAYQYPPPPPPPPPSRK",
  "test": "CLIP (cross-linking immunoprecipitation) of biotin-Alu RNA and DDX17 in HEK293 cells",
  "type": "binding",
  "design": "Myc; expressed in transfected cells; host or cells: HEK293",
  "settings": "UV cross-linking, streptavidin pull down (FIG. 8B)",
  "from_the_text": "FIGS. 8A-8C. CLIP (cross-linking immunoprecipitation) on Alu RNA (SEQ ID NO: 86) and Ddx17 interaction. Human HEK293 cell transfected with btn-Alu RNA (SEQ ID NO: 86), cross-linked by ultraviolet light, pull-downed by biotin-streptavidin. The binding of Ddx17 determined by western blot. FIG. 8A. Schematic of CLIP (cross-linking immunoprecipitation) for biotin or myc-tag mediated immunoprecipitation. FIG. 8B. […] WCL is whole cell lysates. The bands of pull downed DDX17 proteins by Alu RNA (SEQ ID NO: 86) were indicated by black arrow. FIG. 8C. The HEK293 cells were transfected with myc-tagged DDX17 and biotin-Alu RNA (SEQ ID NO: 86). Cells were cross-linked and lysates for immunoprecipitation by Anti-myc beads. The total RNA was extracted, and were the Alu RNA (SEQ ID NO: 86) were detected with Northern blot. […] The bands of pull-downed Alu RNA (SEQ ID NO: 86) by myc-DDX17 proteins were indicated by black arrow.\nNext, we sought to identify the sensor responsible for Alu RNA (SEQ ID NO: 86) induced NLRC4 inflammasome activation. We employed cross-linking immunoprecipitation (CLIP)-mass spectrometry to reveal protein interaction partners of Alu RNA (SEQ ID NO: 86). […] Immunoprecipitation of the cell lysate with anti-Streptavidin (FIG. 8B) or Myc antibody (FIG. 8C) pulled down biotin-labelled Alu RNA (SEQ ID NO: 86), as detected by northern blotting. […]",
  "data": [
    {"substance": "Alu RNA: human SINE RNA, SEQ ID NO: 86", "values": [
      {"measurement": "binding of DDX17 to biotin-Alu RNA", "result": "physically binds"}
    ]}
  ]
}
